Measured values reported in PubChem BioAssay AID2202554 (NIEHS Division of Translational Toxicology (DTT)).
Inconclusive results are not listed. The source made the active and inactive calls. No rule for the calls is given here.

The molecules below were run on S. typhimurium/E. coli reverse mutation, colony counts (assay: Bacterial reverse mutation test (aka Ames test) summary data).
Outline: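 Revertant colony counts on plates, compared with untreated controls, after about two days of growth. Exposure with or without liver S9 (rat/hamster/mouse), dose range per strain, 20-min 37° C preincubation or direct plate incorporation. Strains: his⁻ Salmonella, trp⁻ E. coli WP2 uvrA pKM101.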

| SMILES | outcome |
| --- | --- |
| Cc1cccc(O)c1C | inactive; negative |
| OCC#CCO | inactive; negative |
| CCC[CH2][Sn]([CH2]CCC)([O]C(C)=O)[O]C(C)=O | inactive; negative |
| COC(=O)C1=C(C)NC(C)=C(C(=O)OC)C1c1ccccc1[N+](=O)[O-] | inactive; negative |
| Cc1ccc(N)cc1Cl | active; weakly positive |
| OCc1ccco1 | inactive; negative |
| Cc1cccc2cccnc12 | active; positive |
| Oc1ccc([C@H]2COc3cc(O)ccc3C2)cc1 | inactive; negative |
| OC[C@@]1(O)CO[C@](O)(CO)CO1 | active; positive |
| C[C@]12CC[C@@H]3c4ccc(O)cc4CC[C@H]3[C@@H]1CC[C@@H]2O | inactive; negative |
| Cc1ccc(C(=O)O)cc1[N+](=O)[O-] | active; positive |
| ClC1=C(Cl)C2(Cl)C3C(Cl)C=CC3C1(Cl)C2(Cl)Cl (stereo not drawn) | inactive; negative |
| C1=CC2C3C=CC(C3)C2C1 (stereo not drawn) | inactive; negative |
| CCCCOC(=O)c1ccccc1N | inactive; negative |
| CC(C)(Cl)[N+](=O)[O-] | active; weakly positive |
| Cc1ccc(S(N)(=O)=O)cc1 | inactive; negative |
| FC(F)(F)C(Cl)Br (stereo not drawn) | inactive; negative |
| CC(C)(C)OOC(C)(C)C | inactive; negative |
| O=C(O)c1cc(Cl)ccc1Cl | inactive; negative |
| O=[N+]([O-])C(Br)(CO)CO | inactive; negative |
| CC(C)CN(CC(C)C)CC(C)C | inactive; negative |
| ClC1=C(Cl)[C@]2(Cl)[C@@H]3[C@H]4C[C@H]([C@@H]5O[C@H]45)[C@@H]3[C@@]1(Cl)C2(Cl)Cl | inactive; negative |
| CC(COC(=O)c1ccccc1)(COC(=O)c1ccccc1)COC(=O)c1ccccc1 | inactive; negative |

| SMILES | outcome |
| --- | --- |
| N#CSCSC#N | inactive; negative |
| C=C(C)C#N | inactive; negative |
| S=C1NC=NC2N=CNC12 (stereo not drawn) | active; positive |
| O=[N+]([O-])c1cc(Cl)c(Cl)c(Cl)c1 | active; positive |
| CCOC(N)=O | active; positive |
| CC1CCC(CO)CC1 (stereo not drawn) | inactive; negative |
| Oc1ccc(Cl)c(Cl)c1 | inactive; negative |
| Nc1c(Br)cc(Br)c2c1C(=O)c1ccccc1C2=O | active; positive |
| C=CC(=C)CCC=C(C)C | inactive; negative |
| C=CCOC(C)=O | active; positive |
| Cc1ccc(Nc2ccc(O)c3c2C(=O)c2ccccc2C3=O)cc1 | inactive; negative |
| Nc1ccc(C(=O)O)cc1 | inactive; negative |
| CC(O)c1ccccc1 (stereo not drawn) | inactive; negative |
| COc1cc(-c2ccc(N=Nc3c(S(=O)(=O)O)cc4cc(S(=O)(=O)O)cc(O)c4c3O)c(OC)c2)ccc1N=Nc1c(S(=O)(=O)O)cc2cc(S(=O)(=O)O)cc(O)c2c1O | inactive; negative |
| [O]=[Zr] | inactive; negative |
| CCOCCOCC | active; positive |
| Nc1ccc(O)c(N)c1 | active; positive |
| CC(C)(C)c1ccc(O)c(O)c1 | inactive; negative |
| CCN(CC)c1ccc(N)cc1 | active; positive |
| CN(C)c1ccc(N=NS(=O)(=O)O)cc1 | active; positive |
| CCN(CC)CCO | inactive; negative |
| CCNC(=O)Nc1ncc([N+](=O)[O-])s1 | active; positive |
| Nc1ccc(O)c([N+](=O)[O-])c1 | active; positive |

| SMILES | outcome |
| --- | --- |
| C=CC(C)=O | active; positive |
| CCOc1ccc(NC(N)=O)cc1 | inactive; negative |
| CNC=O | inactive; negative |
| c1ccc(Oc2ccccc2)cc1 | inactive; negative |
| Sc1ccccc1 | inactive; negative |
| ClCC(Cl)CCl | active; positive |
| Cc1ccc([N+](=O)[O-])cc1C | active; positive |
| CSCCC=O | inactive; negative |
| Cc1ccc(S(=O)(=O)Oc2ccc(N=Nc3ccc(-c4ccc(N=Nc5c(O)ccc6cc(S(=O)(=O)O)cc(S(=O)(=O)O)c56)c(C)c4)cc3C)cc2)cc1 | active; positive |
| CCOc1ccc(NC(C)=O)cc1[N+](=O)[O-] | active; positive |
| CCN(N=O)C(N)=O | active; positive |
| O=C(O)CN(CCN(CC(=O)O)CC(=O)O)CC(=O)O | inactive; negative |
| O=C1O[C@H](CO)[C@@H](O)[C@H](O)[C@H]1O | inactive; negative |
| CCN(CC)c1ccc2c(C)cc(=O)oc2c1 | inactive; negative |
| O=C(NC(S)c1nc2ccccc2s1)NC(S)c1nc2ccccc2s1 (stereo not drawn) | active; positive |
| O=C=Nc1ccc(N=C=O)cc1 | inactive; negative |
| Nc1cc(Cl)cc(C(=O)O)c1Cl | active; positive |
| CCCCOCCOP(=O)(OCCOCCCC)OCCOCCCC | inactive; negative |
| C[CH2][Hg][S]c1ccccc1C(=O)O | inactive; negative |
| ClC(Br)Br | active; weakly positive |
| CCOP(=S)(OCC)SCSC(C)(C)C | inactive; negative |
| Nc1c2c(nc3ccccc13)CCCC2 | active; positive |
| Nc1ccccc1S(=O)(=O)O | active; weakly positive |

| SMILES | outcome |
| --- | --- |
| O=C(O)c1ccc(Cl)c(Cl)c1 | inactive; negative |
| CC/C(=C(/CC)c1ccc(O)cc1)c1ccc(O)cc1 | inactive; negative |
| O=C(O)c1ccc(O)cc1O | inactive; negative |
| CC(C)[C@]12CC(=O)[C@H](C)[C@H]1C2 | inactive; negative |
| O=[N+]([O-])c1ccccc1CCl | active; positive |
| Clc1ccccc1 | inactive; negative |
| CN(C)c1ccc(Cc2ccc(N(C)C)cc2)cc1 | active; positive |
| Cc1c(N=C=O)cccc1N=C=O | active; positive |
| CS(=O)(=O)OCCCCOS(C)(=O)=O | active; positive |
| CC(=O)C(N=Nc1ccc(-c2ccc(N=NC(C(C)=O)C(=O)Nc3ccccc3)c(Cl)c2)cc1Cl)C(=O)Nc1ccccc1 (stereo not drawn) | inactive; negative |
| Clc1ccccn1 | active; positive |
| Nc1ccn([C@H]2CC[C@@H](CO)O2)c(=O)n1 | active; weakly positive |
| c1ccc2[nH]c(-c3cscn3)nc2c1 | active; positive |
| COCC1CO1 (stereo not drawn) | active; positive |
| CCC(C(N)=O)(C(N)=O)c1ccccc1 | active; weakly positive |
| [Cl][In]([Cl])[Cl] | inactive; negative |
| O=Cc1ccccc1Cl | inactive; negative |
| CC(O)COc1ccccc1 (stereo not drawn) | inactive; negative |
| COP(=S)(OC)SCn1nnc2ccccc2c1=O | active; positive |
| COc1ccc(OC)cc1 | inactive; negative |
| CCCNC(C)C(=O)Nc1ccccc1C (stereo not drawn) | inactive; negative |
| NCCNCCN | inactive; negative |
| C=CC(=O)CC | active; positive |

| SMILES | outcome |
| --- | --- |
| CC(C)Cc1nccs1 | active; positive |
| O=C(O)CBr | active; positive |
| CC(Cl)CCl (stereo not drawn) | active; weakly positive |
| CC(Cl)Cl | inactive; negative |
| OC(c1ccc(Cl)cc1)(c1ccc(Cl)cc1)c1ccc(Cl)cc1 | inactive; negative |
| O.O.O.O.O.O.O=S(=O)([O-])[O-].[Ni+2] | inactive; negative |
| Nc1ccc(N=Nc2ccccc2)cc1 | active; positive |
| O=C1OC2(c3cc(Br)c(O)c(Br)c3Oc3c2cc(Br)c(O)c3Br)c2c(Cl)c(Cl)c(Cl)c(Cl)c21 | active; positive |
| O=C(O)C(F)(F)C(F)(F)C(F)(F)C(F)(F)C(F)(F)C(F)(F)C(F)(F)C(F)(F)F | inactive; negative |
| NCCC(=O)O | inactive; negative |
| FC(F)(F)c1ccccc1Cl | inactive; negative |
| CC(O)CO (stereo not drawn) | inactive; negative |
| CN(C)C(=O)Cl | active; positive |
| CC(=O)Nc1cccc(C)c1 | inactive; negative |
| CCCC(=O)Cl | active; weakly positive |
| CCCCCCCCCCCCCCCCC1CO1 (stereo not drawn) | inactive; negative |
| O=P(O)(O)Oc1c[nH]c2ccccc12 | active; positive |
| CCCCCCc1ccc(-c2ccc(C#N)cc2)cc1 | inactive; negative |
| c1cc2ccc3cccc4ccc(c1)c2c34 | active; positive |
| N#CCBr | inactive; negative |
| Nc1cc([N+](=O)[O-])ccc1O | active; positive |
| CCCCOC(=O)c1ccccc1C(=O)OC1CCCCC1 | inactive; negative |
| CCOC(=O)c1ccccc1N | inactive; negative |

| SMILES | outcome |
| --- | --- |
| Brc1ccc(Oc2cc(Br)c(Br)cc2Br)c(Br)c1 | inactive; negative |
| CCC(C)=O | inactive; negative |
| O=[N+]([O-])c1cccc(Cl)c1Cl | active; weakly positive |
| [O-][Br+2]([O-])O | active; positive |
| O=[N+]([O-])c1c(O)c(Cl)cc(Cl)c1Cl | inactive; negative |
| CCOCCOCCO | inactive; negative |
| CC(C)(Cl)Cl | inactive; negative |
| O=C1c2c(O)cccc2Cc2cccc(O)c21 | inactive; negative |
| CN(C)CCN(C)C | inactive; negative |
| CCCCOC(C)=O | inactive; negative |
| FC(F)(F)C(F)(F)I | active; positive |
| CC(O)C#N (stereo not drawn) | active; weakly positive |
| COc1cccc2sc(N)nc12 | active; positive |
| O=C1c2c(O)ccc([N+](=O)[O-])c2C(=O)c2c([N+](=O)[O-])ccc(O)c21 | active; positive |
| OCC(CO)(CCBr)CCBr | active; positive |
| CNC(=O)ON=CC(C)(C)SC | inactive; negative |
| COC(C)(C)CC(C)=O | inactive; negative |
| CC(C)(C)OCC1CO1 (stereo not drawn) | active; positive |
